In assay [1] the target is T1, human TRPC5 (Homo sapiens, UniProt Q9UL62).
T1 construct: expressed in transfected cells
T1 sequence (Q9UL62 1-973): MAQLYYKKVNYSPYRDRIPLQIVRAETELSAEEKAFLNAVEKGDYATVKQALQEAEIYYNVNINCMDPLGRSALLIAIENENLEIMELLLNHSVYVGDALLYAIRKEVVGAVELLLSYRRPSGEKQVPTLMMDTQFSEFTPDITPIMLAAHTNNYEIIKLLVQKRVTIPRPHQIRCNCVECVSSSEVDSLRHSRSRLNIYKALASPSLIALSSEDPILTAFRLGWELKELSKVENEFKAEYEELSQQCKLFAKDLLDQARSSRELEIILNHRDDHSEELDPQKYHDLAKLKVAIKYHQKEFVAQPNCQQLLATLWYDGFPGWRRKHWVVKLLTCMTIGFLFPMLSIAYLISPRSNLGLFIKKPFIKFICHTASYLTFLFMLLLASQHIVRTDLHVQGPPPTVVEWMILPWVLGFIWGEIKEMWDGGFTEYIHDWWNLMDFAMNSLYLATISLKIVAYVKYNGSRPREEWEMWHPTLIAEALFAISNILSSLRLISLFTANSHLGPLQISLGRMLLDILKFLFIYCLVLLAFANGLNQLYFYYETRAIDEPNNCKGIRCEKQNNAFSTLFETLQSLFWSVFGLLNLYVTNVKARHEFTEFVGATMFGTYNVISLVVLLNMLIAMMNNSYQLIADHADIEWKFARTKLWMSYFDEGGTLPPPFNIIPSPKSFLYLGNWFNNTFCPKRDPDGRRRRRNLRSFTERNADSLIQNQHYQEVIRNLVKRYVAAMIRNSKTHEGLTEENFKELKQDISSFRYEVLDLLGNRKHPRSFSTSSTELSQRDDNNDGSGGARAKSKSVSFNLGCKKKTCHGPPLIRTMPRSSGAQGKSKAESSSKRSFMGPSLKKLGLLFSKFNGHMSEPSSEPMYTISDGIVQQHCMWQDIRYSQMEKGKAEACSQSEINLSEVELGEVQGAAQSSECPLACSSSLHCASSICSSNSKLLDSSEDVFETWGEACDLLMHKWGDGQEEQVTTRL
Briefly: Whole-cell patch clamp of TRPC5-expressing (Tet+) HEK 293 cells. The format is cell-based. On the technique in general: In patch-clamp work, channel activity is measured electrically.

The target of assay [2] is T1, human TRPC5. Briefly: Gd3+-evoked Ca2+ entry in TRPC5-expressing (Tet+) HEK 293 cells. The format is cell-based. The conditions noted are these: for IC50: TRPC5 (Tet+) HEK 293, 50 μM Gd3+, fluo-4, 30 min pretreatment, read-out: IC50, inhibition of Gd3+-evoked Ca2+ entry; for effect on Gd3+-evoked Ca2+ entry (natural flavonoid screen): XRhod-1.
Assay [3] deals with T1, human TRPC5. Briefly: Outside-out patch recordings from TRPC5 Tet+ cells. The format is cell-based. The following applies: 10 μM compound, 100 μM Gd3+.
Assay [4] deals with endogenous TRPC5-containing channels (Mus musculus, UniProt Q9QX29). Briefly: Ca2+ entry through endogenous channels in differentiated 3T3-L1 cells. The following applies: estimated. The format is cell-based. How it is done:
The 3T3‐L1 cell line was obtained from the American Type Culture Collection and cultured in DMEM‐F12 containing 10% fetal calf serum (FCS), 100 U·mL^−1 penicillin and 100 μg·mL^−1 streptomycin. To induce differentiation, cells were grown to confluence, and 2 days post‐confluence, the medium was changed to a medium containing 5 μg·mL^−1 insulin, 0.25 μM dexamethasone and 0.5 mM IBMX with 10% FCS and antibiotics. After 48 h, medium was changed to a maintenance medium containing 5 μg·mL^−1 insulin, 10% FCS and antibiotics. Cells were fed with fresh maintenance medium every 2 days until the day of experiments. For all experiments, cells were differentiated for 12–16 days.
Induced (Tet+) and non‐induced (Tet−) cells were plated in poly‐d‐lysine‐coated black 96‐well plates (Corning, Corning, NY, USA) at a confluence of 90% 24 h before experimentation. […] Cells were washed three times with SBS before measurements were made at room temperature (21 ± 2 °C) on a 96‐well fluorescence plate reader (FlexStation II^384, Molecular Devices, Sunnyvale, CA, USA). […] Readings were made every 10 s. Fura‐2 measurements are shown as the fluorescence (F) ratio or change (Δ) in this ratio. Fluo‐4 and XRhod‐1 measurements are shown as absolute fluorescence in arbitrary units or changes in this fluorescence (ΔF). […]

The subject of another assay is Cav1.2 channels. More on the design: method as in Saponara et al., 2011. The conditions noted are these: smooth muscle; ref Saponara et al., 2011; cited from earlier work.
In another assay the test system is 3T3-L1 cells. The conditions noted are these: cited from earlier work.
The test system of another assay is BKCa channels. More on the design: method as in Cogolludo et al., 2007; Xu et al., 2008b. The conditions noted are these: ref Cogolludo et al., 2007; Xu et al., 2008b; cited from earlier work.
Assay [5] relates to GABA-evoked ionic currents. Further details: method as in Goutman et al., 2003. The following applies: ref Goutman et al., 2003; cited from earlier work.

Where two headings read alike, the source gives them in different places.

Sequence of endogenous TRPC5-containing channels (Q9QX29 whole entry): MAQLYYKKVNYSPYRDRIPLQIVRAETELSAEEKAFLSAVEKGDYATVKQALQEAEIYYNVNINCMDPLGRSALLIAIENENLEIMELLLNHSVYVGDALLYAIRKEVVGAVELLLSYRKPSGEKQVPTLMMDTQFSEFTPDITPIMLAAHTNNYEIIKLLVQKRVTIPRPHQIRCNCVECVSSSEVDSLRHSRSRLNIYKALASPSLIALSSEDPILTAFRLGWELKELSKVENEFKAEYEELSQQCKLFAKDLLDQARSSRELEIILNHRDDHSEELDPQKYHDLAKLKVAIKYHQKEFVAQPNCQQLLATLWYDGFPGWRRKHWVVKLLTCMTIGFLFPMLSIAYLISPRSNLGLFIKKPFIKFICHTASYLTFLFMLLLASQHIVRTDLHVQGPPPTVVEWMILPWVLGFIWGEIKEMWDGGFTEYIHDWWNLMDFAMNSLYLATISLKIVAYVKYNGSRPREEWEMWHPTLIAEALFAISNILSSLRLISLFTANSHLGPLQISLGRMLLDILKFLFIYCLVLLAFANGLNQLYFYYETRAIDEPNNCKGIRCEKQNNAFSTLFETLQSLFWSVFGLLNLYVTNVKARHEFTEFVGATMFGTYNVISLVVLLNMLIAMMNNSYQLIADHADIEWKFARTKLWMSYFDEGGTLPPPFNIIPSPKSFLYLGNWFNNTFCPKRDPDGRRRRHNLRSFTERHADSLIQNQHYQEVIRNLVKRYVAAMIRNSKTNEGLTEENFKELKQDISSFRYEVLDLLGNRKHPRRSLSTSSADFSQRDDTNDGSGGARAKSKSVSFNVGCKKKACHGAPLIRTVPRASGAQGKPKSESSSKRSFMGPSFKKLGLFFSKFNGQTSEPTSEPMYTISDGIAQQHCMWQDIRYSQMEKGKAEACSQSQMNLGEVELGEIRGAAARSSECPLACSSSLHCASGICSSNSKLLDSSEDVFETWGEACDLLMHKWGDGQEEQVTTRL
Sequence of endogenous TRPC5-containing channels (Q61056 whole entry partner): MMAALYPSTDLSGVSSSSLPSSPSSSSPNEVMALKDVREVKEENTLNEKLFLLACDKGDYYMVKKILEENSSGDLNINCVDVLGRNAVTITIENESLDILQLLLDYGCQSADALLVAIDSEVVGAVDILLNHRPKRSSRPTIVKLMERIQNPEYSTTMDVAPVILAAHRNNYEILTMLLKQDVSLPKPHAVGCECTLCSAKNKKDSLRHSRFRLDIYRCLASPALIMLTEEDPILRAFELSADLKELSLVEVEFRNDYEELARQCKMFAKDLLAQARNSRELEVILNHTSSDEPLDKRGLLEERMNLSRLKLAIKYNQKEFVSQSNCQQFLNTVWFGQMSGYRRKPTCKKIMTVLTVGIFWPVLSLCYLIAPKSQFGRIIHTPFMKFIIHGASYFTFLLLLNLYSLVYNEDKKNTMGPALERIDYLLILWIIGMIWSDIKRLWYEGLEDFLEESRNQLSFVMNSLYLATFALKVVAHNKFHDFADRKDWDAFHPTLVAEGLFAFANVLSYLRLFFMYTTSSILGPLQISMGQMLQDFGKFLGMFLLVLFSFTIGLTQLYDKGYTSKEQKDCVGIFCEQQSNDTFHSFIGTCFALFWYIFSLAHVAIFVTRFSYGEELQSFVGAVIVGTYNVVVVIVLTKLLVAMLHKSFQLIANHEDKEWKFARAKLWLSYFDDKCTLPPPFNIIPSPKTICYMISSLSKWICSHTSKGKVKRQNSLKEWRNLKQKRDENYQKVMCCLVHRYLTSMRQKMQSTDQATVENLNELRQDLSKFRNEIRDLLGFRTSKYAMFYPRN

With `NCCOB(c1ccccc1)c1ccccc1` [2‐aminoethoxydiphenylborate], on human TRPC5 [1] (75 μM, applied after Gd3+ and galangin), the “effect on TRPC5 whole-cell current after galangin” value is reported as “further inhibited the current”.

Take `O=c1c(O)c(-c2ccccc2)oc2cc(O)cc(O)c12` [Galangin]: the “effect on Gd3+-evoked Ca2+ signal (natural product screen)” value at human TRPC5 [2] (10 μM, 30 min pre-incubation, 50 μM Gd3+, fluo-4) is “inhibitory”. Also, the 50% inhibitory concentration (IC50) (as a rule, the point on the concentration scale where inhibition reaches its midpoint) is 0.45 µM at human TRPC5 [2]; 6.05 µM in assay [4] (fluo-4, 20 μM La3+, read-out: IC50 for inhibition of La3+-evoked Ca2+ entry); 1.85 µM in assay [4] (fluo-4, constitutive activity, read-out: IC50 for inhibition of basal Ca2+). The “effect on Gd3+-evoked TRPC5-mediated whole-cell current” value on human TRPC5 [1] (10 μM compound, 30 μM Gd3+, Ca2+ or Ba2+ in bath) is listed as “effective”. Moreover, on human TRPC5 [1] (10 μM, 30 μM Gd3+), the “time to effect on whole-cell current” value was ≤ 2 min. Besides, the “effect on TRPC5 current stimulated by S1P” value on human TRPC5 [1] (whole-cell, 10 μM compound, 5 μM S1P) was “effective”. In addition, on human TRPC5 [1] (whole-cell, 10 μM, Gd3+-evoked current), the reversibility on washout entry is “not readily reversed on washout”. At human TRPC5 [3], the “effect on TRPC5-mediated current in excised outside-out patches” value is “inhibited”. Also, in the assay with Cav1.2 channels, the “effect on Cav1.2 channels” value is “inhibited”. Besides, the “effect in 3T3-L1 cells / on adipocyte differentiation” value with 3T3-L1 cells (ref Jung et al., 2012) is “anti‐adipogenic effects”.

Consider `O=c1c(O)c(-c2ccc(O)cc2)oc2cc(O)cc(O)c12` [Kaempferol], for which the “effect on Gd3+-evoked Ca2+ entry (natural flavonoid screen)” value at human TRPC5 [2] (10 μM, 50 μM Gd3+) is “inhibitors”. On human TRPC5 [2], the IC50 is 3.9 µM. Also, the “effect on Cav1.2 channels” value in the assay on Cav1.2 channels is “stimulators”. Also, the “effect on BKCa channels” value with BKCa channels was “stimulated”.

`O=c1cc(-c2ccc(O)c(O)c2)oc2cc(O)cc(O)c12` [Luteolin]: the IC50 on human TRPC5 [2] is > 10 µM.

`O=c1c(O)c(-c2cc(O)c(O)c(O)c2)oc2cc(O)cc(O)c12` [Myricetin]: the IC50 at human TRPC5 [2] is > 10 µM. For the same compound, the “effect on Cav1.2 channels” value with Cav1.2 channels is “stimulators”.

As to `O=c1c(O)c(-c2ccc(O)c(O)c2)oc2cc(O)cc(O)c12` [Quercetin], at human TRPC5 [2] (10 μM, 50 μM Gd3+), the “effect on Gd3+-evoked Ca2+ entry (natural flavonoid screen)” value is recorded as “inhibitors”. At human TRPC5 [2], the IC50 is 6.5 µM. Further, the “effect on Cav1.2 channels” value with Cav1.2 channels was “stimulators”. Also, in the assay with BKCa channels, the “effect on BKCa channels” value is on record as “stimulated”. Besides, in assay [5], the “effect on GABA-evoked ionic currents” value is “inhibited”. In addition, the “effect on 3T3-L1 cell growth and apoptosis” value in the assay with 3T3-L1 cells (ref Hsu and Yen, 2006) is on record as “inhibited”.

The values above are taken from publication PMC4728423, “Natural and synthetic flavonoid modulation of TRPC5 channels” (British Journal of Pharmacology, 2016).
